# Laboratory results taken from paper PMC5218480 (PLoS ONE, 2017).
# Tested on: MV-4-11 cells
# Experiment: Gene expression microarray analysis (Affymetrix PrimeView) and GSEA
# Type: cell-based, human
# Design: RFU PODN (11730768_x_at) / Fold change /veh PODN (11730768_x_at) / RFU LINC00158 (11744669_a_at) / Fold change /veh LINC00158 (11744669_a_at) / RFU DUSP10 (11751237_a_at) / Fold change /veh DUSP10 (11751237_a_at) / RFU ID3 (11757404_x_at) / Fold change /veh ID3 (11757404_x_at) / RFU PLEKHG5 (11737974_s_at) / Fold change /veh PLEKHG5 (11737974_s_at) / RFU LRRC4B (11730491_at) / Fold change /veh LRRC4B (11730491_at) / RFU GIMAP4 (11747438_a_at) / Fold change /veh GIMAP4 (11747438_a_at) / RFU KRT8 (11758183_x_at) / Fold change /veh KRT8 (11758183_x_at) / RFU CNN1 (11734310_a_at) / Fold change /veh CNN1 (11734310_a_at) / RFU VPS37D (11726825_at) / Fold change /veh VPS37D (11726825_at) / RFU C10orf10 (11716522_x_at) / Fold change /veh C10orf10 (11716522_x_at) / RFU KIR2DL2 /// KIR2DL4 /// KIR2DL5A /// KIR2DL5B /// KIR2DS1 /// KIR2DS2 /// KIR2DS3 /// KIR2DS4 /// KIR3DL3 /// KIR3DL3 /// KIR3DS1 (11738374_at) / Fold change /veh KIR2DL2 /// KIR2DL4 /// KIR2DL5A /// KIR2DL5B /// KIR2DS1 /// KIR2DS2 /// KIR2DS3 /// KIR2DS4 /// KIR3DL3 /// KIR3DL3 /// KIR3DS1 (11738374_at) / RFU C1QL1 (11718748_at) / Fold change /veh C1QL1 (11718748_at) / RFU TMPRSS4 (11747572_a_at) / Fold change /veh TMPRSS4 (11747572_a_at) / RFU HAMP (11756126_x_at) / Fold change /veh HAMP (11756126_x_at) / RFU RNFT2 (11725882_a_at) / Fold change /veh RNFT2 (11725882_a_at) / RFU NR4A2 (11747474_a_at) / Fold change /veh NR4A2 (11747474_a_at) / RFU ABCC12 (11746883_a_at) / Fold change /veh ABCC12 (11746883_a_at) / RFU TMEM136 (11760407_x_at) / Fold change /veh TMEM136 (11760407_x_at) / RFU CLDN22 /// WWC2 (11732394_at) / Fold change /veh CLDN22 /// WWC2 (11732394_at) / RFU HLA-DPB1 (11760878_x_at) / Fold change /veh HLA-DPB1 (11760878_x_at) / RFU SPINT1 (11716480_a_at) / Fold change /veh SPINT1 (11716480_a_at) / RFU GAP43 (11754022_s_at) / Fold change /veh GAP43 (11754022_s_at) / RFU A4GNT (11735810_at) / Fold change /veh A4GNT (11735810_at) / RFU PRB3 (11715151_x_at) / Fold change /veh PRB3 (11715151_x_at) / RFU TUBB4B (11761932_at) / Fold change /veh TUBB4B (11761932_at) / RFU CAPN14 (11732068_a_at) / Fold change /veh CAPN14 (11732068_a_at) / RFU TMCC2 (11721928_a_at) / Fold change /veh TMCC2 (11721928_a_at) / RFU IRGQ (11745062_a_at) / Fold change /veh IRGQ (11745062_a_at) / RFU FAM174B (11720279_a_at) / Fold change /veh FAM174B (11720279_a_at) / RFU TMPRSS4 (11748680_a_at) / Fold change /veh TMPRSS4 (11748680_a_at) / RFU FAM212B (11763350_a_at) / Fold change /veh FAM212B (11763350_a_at) / RFU PLEKHG5 (11743358_a_at) / Fold change /veh PLEKHG5 (11743358_a_at) / RFU ZSCAN30 (11745921_a_at) / Fold change /veh ZSCAN30 (11745921_a_at) / RFU CMKLR1 (11741424_a_at) / Fold change /veh CMKLR1 (11741424_a_at) / RFU LOC101060620 /// MAPK8IP1 (11723275_at) / Fold change /veh LOC101060620 /// MAPK8IP1 (11723275_at) / RFU SPTSSB (11747773_x_at) / Fold change /veh SPTSSB (11747773_x_at) / RFU PRSS12 (11739890_at) / Fold change /veh PRSS12 (11739890_at) / RFU BIN1 (11741810_x_at) / Fold change /veh BIN1 (11741810_x_at) / RFU WNT11 (11732464_a_at) / Fold change /veh WNT11 (11732464_a_at) / RFU C10orf10 (11716521_a_at) / Fold change /veh C10orf10 (11716521_a_at) / RFU C5orf56 (11738089_at) / Fold change /veh C5orf56 (11738089_at) / RFU CYB561 (11721691_x_at) / Fold change /veh CYB561 (11721691_x_at) / RFU ANKRD19P (11752326_a_at) / Fold change /veh ANKRD19P (11752326_a_at) / RFU OR2T12 /// OR2T33 /// OR2T8 (11738714_s_at) / Fold change /veh OR2T12 /// OR2T33 /// OR2T8 (11738714_s_at) / RFU VCAN (11748164_a_at) / Fold change /veh VCAN (11748164_a_at) / RFU JSRP1 (11732532_at) / Fold change /veh JSRP1 (11732532_at) / RFU KRTAP10-11 (11738290_x_at) / Fold change /veh KRTAP10-11 (11738290_x_at) / RFU MYO3A (11730013_a_at) / Fold change /veh MYO3A (11730013_a_at) / RFU EBF3 (11725865_a_at) / Fold change /veh EBF3 (11725865_a_at) / RFU CAMK2N1 (11719241_x_at) / Fold change /veh CAMK2N1 (11719241_x_at) / RFU C5orf56 (11738088_a_at) / Fold change /veh C5orf56 (11738088_a_at) / RFU OLFML3 (11715873_a_at) / Fold change /veh OLFML3 (11715873_a_at) / RFU LOC100653217 /// NTM (11731650_a_at) / Fold change /veh LOC100653217 /// NTM (11731650_a_at) / RFU MAPK11 (11762145_a_at) / Fold change /veh MAPK11 (11762145_a_at) / RFU FIZ1 (11724087_x_at) / Fold change /veh FIZ1 (11724087_x_at) / RFU OASL (11726364_x_at) / Fold change /veh OASL (11726364_x_at) / RFU SOX15 (11748057_x_at) / Fold change /veh SOX15 (11748057_x_at) / RFU CD79A (11719716_a_at) / Fold change /veh CD79A (11719716_a_at) / RFU HIST1H1D (11736915_at) / Fold change /veh HIST1H1D (11736915_at) / RFU CASKIN2 (11723855_a_at) / Fold change /veh CASKIN2 (11723855_a_at) / RFU LOC730098 (11760151_x_at) / Fold change /veh LOC730098 (11760151_x_at) / RFU OR4N2 (11742367_at) / Fold change /veh OR4N2 (11742367_at) / RFU PRRT2 (11749266_a_at) / Fold change /veh PRRT2 (11749266_a_at) / RFU SNX32 (11753110_a_at) / Fold change /veh SNX32 (11753110_a_at) / RFU CDHR5 (11726645_a_at) / Fold change /veh CDHR5 (11726645_a_at) / RFU RCAN1 (11760418_a_at) / Fold change /veh RCAN1 (11760418_a_at) / RFU FAM167A (11723789_a_at) / Fold change /veh FAM167A (11723789_a_at) / RFU FAM26E (11764081_at) / Fold change /veh FAM26E (11764081_at) / RFU ISYNA1 (11749810_s_at) / Fold change /veh ISYNA1 (11749810_s_at) / RFU ACY1 (11761880_at) / Fold change /veh ACY1 (11761880_at) / RFU 11764098_at / Fold change /veh 11764098_at / RFU SAMD14 (11745864_x_at) / Fold change /veh SAMD14 (11745864_x_at) / RFU NPB (11741838_a_at) / Fold change /veh NPB (11741838_a_at) / RFU TMPRSS6 (11731388_a_at) / Fold change /veh TMPRSS6 (11731388_a_at) / RFU KRTAP10-2 (11738614_at) / Fold change /veh KRTAP10-2 (11738614_at) / RFU ARHGAP8 /// PRR5-ARHGAP8 (11727945_x_at) / Fold change /veh ARHGAP8 /// PRR5-ARHGAP8 (11727945_x_at) / RFU KRTAP5-7 /// NADSYN1 (11734609_at) / Fold change /veh KRTAP5-7 /// NADSYN1 (11734609_at) / RFU RASL12 (11751679_a_at) / Fold change /veh RASL12 (11751679_a_at) / RFU CDKN2B (11736163_a_at) / Fold change /veh CDKN2B (11736163_a_at) / RFU PRF1 (11729649_at) / Fold change /veh PRF1 (11729649_at) / RFU, ZNF638 /// ZNF638-IT1 / Fold change vs veh, ZNF638 /// ZNF638-IT1 / RFU, PANK3 / Fold change vs veh, PANK3 / RFU, SH3YL1 / Fold change vs veh, SH3YL1 / RFU, ZEB2 / Fold change vs veh, ZEB2 / RFU, NRIP1 / Fold change vs veh, NRIP1 / RFU, PTTG1IP / Fold change vs veh, PTTG1IP / RFU, CAPN2 / Fold change vs veh, CAPN2 / RFU, MED14 / Fold change vs veh, MED14 / RFU, SNORA58 / Fold change vs veh, SNORA58 / RFU, C1orf63 / Fold change vs veh, C1orf63 / RFU, LRRFIP1 / Fold change vs veh, LRRFIP1 / RFU, NDUFAF7 / Fold change vs veh, NDUFAF7 / RFU, SLC12A2 / Fold change vs veh, SLC12A2 / RFU, IBTK / Fold change vs veh, IBTK / RFU, ESF1 / Fold change vs veh, ESF1 / Fold change vs veh, TMEM50B / RFU, TAOK1 / Fold change vs veh, TAOK1 / RFU, ACBD3 / Fold change vs veh, ACBD3 / RFU, TMA16 / Fold change vs veh, TMA16 / RFU, RWDD3 / Fold change vs veh, RWDD3 / RFU, BCAT1 / Fold change vs veh, BCAT1 / RFU, EDEM3 / Fold change vs veh, EDEM3 / RFU, TMEM33 / Fold change vs veh, TMEM33 / RFU, WDR75 / Fold change vs veh, WDR75 / RFU, AHCTF1 / Fold change vs veh, AHCTF1 / RFU, TFRC / Fold change vs veh, TFRC / RFU, ZDHHC17 / Fold change vs veh, ZDHHC17 / RFU, NOM1 / Fold change vs veh, NOM1 / RFU, ARL8B / Fold change vs veh, ARL8B / RFU, ZBTB11 / Fold change vs veh, ZBTB11 / RFU, TAMM41 / Fold change vs veh, TAMM41 / RFU, KIAA1704 /// LOC100996395 / Fold change vs veh, KIAA1704 /// LOC100996395 / RFU, ING1 / Fold change vs veh, ING1 / RFU, TRMT61B / Fold change vs veh, TRMT61B / RFU, FUBP3 / Fold change vs veh, FUBP3 / RFU, TP53 / Fold change vs veh, TP53 / RFU, TNKS2 / Fold change vs veh, TNKS2 / RFU, ZFP14 / Fold change vs veh, ZFP14 / RFU, ACTR2 / Fold change vs veh, ACTR2 / RFU, PPP3R1 / Fold change vs veh, PPP3R1 / RFU, PIK3R1 / Fold change vs veh, PIK3R1 / RFU, HNRNPA1 / Fold change vs veh, HNRNPA1 / RFU, RNF170 / Fold change vs veh, RNF170 / RFU, ZNF28 / Fold change vs veh, ZNF28 / RFU, RNGTT / Fold change vs veh, RNGTT / RFU, OGT / Fold change vs veh, OGT / RFU, BRD1 / Fold change vs veh, BRD1 / RFU, MARS / Fold change vs veh, MARS / RFU, ZNF655 / Fold change vs veh, ZNF655 / RFU, FAHD1 / Fold change vs veh, FAHD1 / RFU, BDP1 / Fold change vs veh, BDP1 / RFU, LRRCC1 / Fold change vs veh, LRRCC1 / RFU, ARID1A / Fold change vs veh, ARID1A / RFU, ZNF146 / Fold change vs veh, ZNF146 / RFU, ZNF330 / Fold change vs veh, ZNF330 / RFU, GPN3 / Fold change vs veh, GPN3 / RFU, C9orf123 / Fold change vs veh, C9orf123 / RFU, N4BP2L2 / Fold change vs veh, N4BP2L2 / RFU, ARFIP1 / Fold change vs veh, ARFIP1 / RFU, FAM179B / Fold change vs veh, FAM179B / RFU, BCL10 / Fold change vs veh, BCL10 / RFU, UHRF1BP1L / Fold change vs veh, UHRF1BP1L / RFU, BET1 / Fold change vs veh, BET1 / RFU, CNOT2 / Fold change vs veh, CNOT2 / RFU, ZNF268 / Fold change vs veh, ZNF268 / Fold change vs veh, ZNF507 / RFU, DGCR2 / Fold change vs veh, DGCR2 / RFU, WDSUB1 / Fold change vs veh, WDSUB1 / Fold change vs veh, HSP90B1 /// MIR3652 / RFU, ADSS / Fold change vs veh, ADSS / RFU, GK / Fold change vs veh, GK / RFU, ZNF148 / Fold change vs veh, ZNF148 / RFU, TAF9 / Fold change vs veh, TAF9 / RFU, SLC1A5 / Fold change vs veh, SLC1A5 / RFU, SLMO2 / Fold change vs veh, SLMO2 / RFU, ABCC4 / Fold change vs veh, ABCC4 / RFU, LOC101060439 /// RAP1B / Fold change vs veh, LOC101060439 /// RAP1B / RFU, RFX7 / Fold change vs veh, RFX7 / RFU, GTPBP10 / Fold change vs veh, GTPBP10 / RFU, CNEP1R1 / Fold change vs veh, CNEP1R1 / RFU, BIVM-ERCC5 /// ERCC5 / Fold change vs veh, BIVM-ERCC5 /// ERCC5 / RFU, ILF3 / Fold change vs veh, ILF3 / RFU 11762660_at / Fold change /veh 11762660_at / RFU VCAN (11757783_s_at) / Fold change /veh VCAN (11757783_s_at) / RFU DDX43 (11728927_at) / Fold change /veh DDX43 (11728927_at) / RFU KRT8 (11758188_x_at) / Fold change /veh KRT8 (11758188_x_at) / RFU NKD1 (11759106_at) / Fold change /veh NKD1 (11759106_at) / RFU SRD5A1 (11742802_a_at) / Fold change /veh SRD5A1 (11742802_a_at) / RFU TPSAB1 /// TPSB2 (11721975_s_at) / Fold change /veh TPSAB1 /// TPSB2 (11721975_s_at) / RFU GSTM3 (11746129_a_at) / Fold change /veh GSTM3 (11746129_a_at) / RFU IL23R (11737362_x_at) / Fold change /veh IL23R (11737362_x_at) / RFU TMEM51 (11727254_a_at) / Fold change /veh TMEM51 (11727254_a_at) / RFU PIWIL2 (11732686_x_at) / Fold change /veh PIWIL2 (11732686_x_at) / RFU ORM1 (11744905_x_at) / Fold change /veh ORM1 (11744905_x_at) / RFU CCDC152 (11743942_at) / Fold change /veh CCDC152 (11743942_at) / RFU ECM1 (11717891_a_at) / Fold change /veh ECM1 (11717891_a_at) / RFU IL23R (11748794_a_at) / Fold change /veh IL23R (11748794_a_at) / RFU TNFAIP8L3 (11732012_x_at) / Fold change /veh TNFAIP8L3 (11732012_x_at) / RFU MBOAT4 (11741988_at) / Fold change /veh MBOAT4 (11741988_at) / RFU 11764193_at / Fold change /veh 11764193_at / RFU TMEM53 (11763286_at) / Fold change /veh TMEM53 (11763286_at) / RFU MAGEB2 (11727129_at) / Fold change /veh MAGEB2 (11727129_at) / RFU TMEM200A (11744735_a_at) / Fold change /veh TMEM200A (11744735_a_at) / RFU CCDC152 (11751479_a_at) / Fold change /veh CCDC152 (11751479_a_at) / RFU FAM211A (11726209_a_at) / Fold change /veh FAM211A (11726209_a_at) / RFU RGS16 (11746705_a_at) / Fold change /veh RGS16 (11746705_a_at) / RFU VCAN (11755009_s_at) / Fold change /veh VCAN (11755009_s_at) / RFU RHOB (11743442_s_at) / Fold change /veh RHOB (11743442_s_at) / RFU RGS16 (11720943_a_at) / Fold change /veh RGS16 (11720943_a_at) / RFU RGS16 (11720944_at) / Fold change /veh RGS16 (11720944_at) / RFU, VPS4B / Fold change vs veh, VPS4B / RFU, CREB1 / Fold change vs veh, CREB1 / RFU, DNAJC13 / Fold change vs veh, DNAJC13 / RFU, GNAQ / Fold change vs veh, GNAQ / RFU, CDK5R1 / Fold change vs veh, CDK5R1 / RFU, ZRANB3 / Fold change vs veh, ZRANB3 / RFU, CUL4A / Fold change vs veh, CUL4A / RFU, CCNY / Fold change vs veh, CCNY / RFU, UFL1 / Fold change vs veh, UFL1 / RFU, COG3 / Fold change vs veh, COG3 / RFU, DIAPH2 / Fold change vs veh, DIAPH2 / RFU, SKA2 / Fold change vs veh, SKA2 / RFU, AFF3 / Fold change vs veh, AFF3 / RFU, LMF1 / Fold change vs veh, LMF1 / RFU, IPO11 / Fold change vs veh, IPO11 / RFU, DFFB / Fold change vs veh, DFFB / RFU, FOXP1 / Fold change vs veh, FOXP1 / RFU, CARD8 / Fold change vs veh, CARD8 / RFU, STRN3 / Fold change vs veh, STRN3 / RFU, ADK / Fold change vs veh, ADK / RFU, RASSF2 / Fold change vs veh, RASSF2 / RFU, WIPF1 / Fold change vs veh, WIPF1 / RFU, LARP1B / Fold change vs veh, LARP1B / RFU, RASA1 / Fold change vs veh, RASA1 / RFU, RB1 / Fold change vs veh, RB1 / RFU, PPFIA1 / Fold change vs veh, PPFIA1 / RFU, MAT2A / Fold change vs veh, MAT2A / RFU, CCT5 / Fold change vs veh, CCT5 / RFU, WDR92 / Fold change vs veh, WDR92 / RFU, CUX1 / Fold change vs veh, CUX1 / RFU, TTC7A / Fold change vs veh, TTC7A / RFU, TMEM135 / Fold change vs veh, TMEM135 / RFU, DEPTOR / Fold change vs veh, DEPTOR / RFU, CPM / Fold change vs veh, CPM / RFU, DNAJB6 / Fold change vs veh, DNAJB6 / RFU, CACNA2D3 / Fold change vs veh, CACNA2D3 / RFU, DTX4 / Fold change vs veh, DTX4 / RFU, TFCP2 / Fold change vs veh, TFCP2 / RFU, GMCL1 /// GMCL1P1 / Fold change vs veh, GMCL1 /// GMCL1P1 / RFU, AEBP2 / Fold change vs veh, AEBP2 / RFU, SNHG1 /// SNORD22 /// SNORD25 /// SNORD26 /// SNORD27 /// SNORD28 /// SNORD29 /// SNORD31 / Fold change vs veh, SNHG1 /// SNORD22 /// SNORD25 /// SNORD26 /// SNORD27 /// SNORD28 /// SNORD29 /// SNORD31 / Fold change (Aza/veh), C12orf56 (ProbeSet 11735607_a_at) / Fold change (ACY-1035/veh), C12orf56 (ProbeSet 11735607_a_at) / Fold change (Aza/veh), FGFR1OP (ProbeSet 11751329_s_at) / Fold change (ACY-1035/veh), FGFR1OP (ProbeSet 11751329_s_at) / Fold change (Aza/veh), VPS36 (ProbeSet 11739960_a_at) / Fold change (ACY-1035/veh), VPS36 (ProbeSet 11739960_a_at) / RFU SYPL1 (11715823_x_at) / Fold change /veh SYPL1 (11715823_x_at) / RFU IGFBP7 (11715501_s_at) / Fold change /veh IGFBP7 (11715501_s_at) / RFU REEP3 (11722064_at) / Fold change /veh REEP3 (11722064_at) / RFU IGLL1 (11728026_x_at) / Fold change /veh IGLL1 (11728026_x_at): dose or concentration left out as unconfirmed
# Conditions: MV-4-11 cells, 48 hours
compound,measurement,value
Nc1ccc(-c2cccs2)cc1NC(=O)c1ccc2c(c1)cc(C1CC1)n2CCN1CCOCC1 [ACY-1035],RFU LRRC4B (11730491_at),28.30 RFU
